The text below walks through data of ChEMBL document CHEMBL1151720, “Citreamicins with potent gram-positive activity” (J Nat Prod, 2008).

In brackets after ≈: the same amount, converted by molar mass. Some results are limits rather than exact numbers.

Data set [1] deals with Staphylococcus aureus. The data set is described as follows: Antimicrobial activity against methicillin-susceptible Staphylococcus aureus 29213. Format: functional.
The test system of data set [2] is Staphylococcus aureus. Put plainly: Antimicrobial activity against methicillin-resistant Staphylococcus aureus 1137. In kind it is functional.
Data set [3] concerns Staphylococcus aureus. The data set is described as follows: Antimicrobial activity against vancomycin-intermediate Staphylococcus aureus 2012. In kind it is functional.
The test system of data set [4] is Staphylococcus aureus. Put plainly: Antimicrobial activity against linezolid-resistant methicillin-resistant Staphylococcus aureus 1725. Format: functional.
Data set [5] relates to Streptococcus pneumoniae. The data set is described as follows: Antimicrobial activity against penicillin-susceptible Streptococcus pneumoniae 975. Format: functional.
Data set [6] has as its system Streptococcus pneumoniae. The data set is described as follows: Antimicrobial activity against penicillin-resistant Streptococcus pneumoniae 940. In kind it is functional.
Data set [7] concerns Streptococcus pneumoniae. The data set is described as follows: Antimicrobial activity against quinolone-resistant Streptococcus pneumoniae 376. Format: functional.
A further data set deals with Haemophilus influenzae. The data set is described as follows: Antimicrobial activity against ampicillin-resistant Haemophilus influenzae 1742. In kind it is functional.
The test system of data set [8] is Haemophilus parainfluenzae. The data set is described as follows: Antimicrobial activity against Haemophilus parainfluenzae 2319. Format: functional.
Data set [9] deals with Escherichia coli. Put plainly: Antimicrobial activity against Escherichia coli 25922 QC. In kind it is functional. To be noted: ATCC25922.
For data set [10], the system named is Escherichia coli. The data set is described as follows: Antimicrobial activity against extended spectrum beta-lactamase producing Escherichia coli 2269. Format: functional.
In data set [11] the test system is Klebsiella pneumoniae. The data set is described as follows: Antimicrobial activity against Klebsiella pneumoniae 2239. In kind it is functional.
Another data set has as its system Moraxella catarrhalis. The data set is described as follows: Antimicrobial activity against Moraxella catarrhalis 557. Format: functional.
The next data set relates to Serratia marcescens. Put plainly: Antimicrobial activity against Serratia marcescens 1635. In kind it is functional.
A further data set has as its system Pseudomonas aeruginosa. The data set is described as follows: Antimicrobial activity against Pseudomonas aeruginosa 1473. In kind it is functional.
The test system of data set [12] is Staphylococcus aureus. Put plainly: Antimicrobial activity against methicillin-resistant Staphylococcus aureus 43300. Format: functional.
The test system of data set [13] is Staphylococcus aureus. Put plainly: Antimicrobial activity against methicillin-susceptible Staphylococcus aureus 6538. In kind it is functional.
The test system of a further data set is Enterococcus faecium. Put plainly: Antimicrobial activity against vancomycin-resistant Enterococcus faecium 700221 clinical isolate. Format: functional.
In data set [14] the test system is Escherichia coli. The data set is described as follows: Antimicrobial activity against Escherichia coli 1411. Format: functional.
Data set [15] can be described thus: Cytotoxicity against human Hep G2 cells assessed as cell viability measured by change in ATP level after 48 hrs. Format: functional. To be noted: HepG2, 48 h.
Data set [16] can be described thus: Cytotoxicity against NHDF cells assessed as cell viability measured by change in ATP level after 48 hrs. In kind it is cell-based. Conditions: human.
Data set [17] concerns Klebsiella pneumoniae. Put plainly: Antimicrobial activity against ampC beta-lactamase producing multidrug-resistant Klebsiella pneumoniae 2262. In kind it is functional.

For `CCCCCCCCCC(=O)N[C@@H](Cc1c[nH]c2ccccc12)C(=O)N[C@H](CC(N)=O)C(=O)N[C@@H](CC(=O)O)C(=O)N[C@@H]1C(=O)NCC(=O)N[C@@H](CCCN)C(=O)N[C@@H](CC(=O)O)C(=O)N[C@H](C)C(=O)N[C@@H](CC(=O)O)C(=O)NCC(=O)N[C@H](CO)C(=O)N[C@@H]([C@H](C)CC(=O)O)C(=O)N[C@@H](CC(=O)c2ccccc2N)C(=O)O[C@@H]1C`, the MIC against Staphylococcus aureus [1] amounted to 1 µg/mL (≈ 0.617 µM); against Staphylococcus aureus [2], 1 µg/mL (≈ 0.617 µM); in the data set on Staphylococcus aureus [3], 8 µg/mL (≈ 4.94 µM); with Staphylococcus aureus [4], 1 µg/mL (≈ 0.617 µM); against Streptococcus pneumoniae [5], 0.25 µg/mL (≈ 0.154 µM); against Streptococcus pneumoniae [6] it was 0.25 µg/mL (≈ 0.154 µM). Further, the MIC with Streptococcus pneumoniae [7] is 0.25 µg/mL (≈ 0.154 µM); with Haemophilus influenzae it was over 64 µg/mL; in data set [8], over 64 µg/mL; in the data set on Escherichia coli [9] it was over 64 µg/mL; in the data set with Escherichia coli [10], over 64 µg/mL; against Klebsiella pneumoniae [11] it was over 64 µg/mL. In addition, the results for the MIC in the data set with Moraxella catarrhalis, in the data set with Serratia marcescens and with Pseudomonas aeruginosa were 16 µg/mL (≈ 9.87 µM), over 64 µg/mL and over 64 µg/mL, respectively.

On to `COc1ccc2oc3c(c(=O)c2c1O)C(=O)c1c(ccc2cc4c(c(O)c12)C(=O)N1C(C)(C4)OC(=O)C1(C)CO)C3=O` (stereo not drawn) [CITREAMICIN DELTA], for which the MIC with Staphylococcus aureus [12] was 0.5 µg/mL (≈ 0.875 µM); against Staphylococcus aureus [13] it was at most 0.5 µg/mL; against Staphylococcus aureus [1] it was 1 µg/mL (≈ 1.75 µM); in the data set on Staphylococcus aureus [2] it was 2 µg/mL (≈ 3.5 µM); against Staphylococcus aureus [3], 2 µg/mL (≈ 3.5 µM); in the data set with Staphylococcus aureus [4], 1 µg/mL (≈ 1.75 µM). For the same compound, the MIC in the data set with Enterococcus faecium is at most 0.25 µg/mL; against Streptococcus pneumoniae [5] it was at most 0.06 µg/mL; against Haemophilus influenzae, 1 µg/mL (≈ 1.75 µM); in data set [8], 1 µg/mL (≈ 1.75 µM); against Escherichia coli [14] it was over 128 µg/mL; with Escherichia coli [9], over 64 µg/mL. Moreover, the MIC against Escherichia coli [10] was over 64 µg/mL; against Klebsiella pneumoniae [11], over 64 µg/mL; against Moraxella catarrhalis, 4 µg/mL (≈ 7 µM); in the data set on Serratia marcescens, over 64 µg/mL; with Pseudomonas aeruginosa, over 64 µg/mL. In addition, the CC90 in [15] came to 2.4 µg/mL (≈ 4.2 µM). Further, the CC90 at 48 h in data set [16] is 0.3 µg/mL (≈ 0.525 µM).

Regarding `COc1ccc2oc3c(O)c4c(c(O)c3c(=O)c2c1O)-c1c(cc2c(c1O)C(=O)N1C(C)(C2)OC(=O)C1(C)CO)CC4` (stereo not drawn) [CITREAMICIN EPSILON], the MIC in the data set on Staphylococcus aureus [12] worked out at 0.13 µg/mL (≈ 0.226 µM); in the data set on Staphylococcus aureus [13] it was 0.13 µg/mL (≈ 0.226 µM); against Staphylococcus aureus [1], 0.12 µg/mL (≈ 0.209 µM); with Staphylococcus aureus [2], 0.25 µg/mL (≈ 0.434 µM); in the data set with Staphylococcus aureus [3], 0.25 µg/mL (≈ 0.434 µM); in the data set with Staphylococcus aureus [4], 0.12 µg/mL (≈ 0.209 µM). Besides, the MIC against Enterococcus faecium was 0.5 µg/mL (≈ 0.869 µM); in the data set with Streptococcus pneumoniae [5] it was 0.25 µg/mL (≈ 0.434 µM); in the data set with Streptococcus pneumoniae [6] it was 0.12 µg/mL (≈ 0.209 µM); with Streptococcus pneumoniae [7], 0.25 µg/mL (≈ 0.434 µM); with Haemophilus influenzae, over 32 µg/mL; in data set [8] it was over 32 µg/mL. Further, the MIC in the data set with Escherichia coli [14] was over 64 µg/mL; against Escherichia coli [9], over 32 µg/mL; in the data set on Escherichia coli [10], over 32 µg/mL; with Klebsiella pneumoniae [11], over 32 µg/mL; against Klebsiella pneumoniae [17], over 32 µg/mL; in the data set with Moraxella catarrhalis, 0.5 µg/mL (≈ 0.869 µM). The MIC in the data set on Serratia marcescens and in the data set on Pseudomonas aeruginosa was over 32 µg/mL throughout. In addition, the CC90 in data set [15] is 1 µg/mL (≈ 1.74 µM). Besides, the CC90 at 48 h in data set [16] amounted to 0.1 µg/mL (≈ 0.174 µM).

With `CC(=O)NC[C@H]1CN(c2ccc(N3CCOCC3)c(F)c2)C(=O)O1` [LINEZOLID], the MIC against Staphylococcus aureus [12] was determined as 1 µg/mL (≈ 2.96 µM); with Staphylococcus aureus [13], 0.5 µg/mL (≈ 1.48 µM); against Staphylococcus aureus [3] it was 1 µg/mL (≈ 2.96 µM); against Streptococcus pneumoniae [6], 0.25 µg/mL (≈ 0.741 µM); in the data set on Haemophilus influenzae, 8 µg/mL (≈ 23.7 µM); in data set [8], 16 µg/mL (≈ 47.4 µM). Besides, the MIC in the data set with Escherichia coli [9] was over 64 µg/mL; in the data set on Escherichia coli [10], over 64 µg/mL; against Klebsiella pneumoniae [11] it was over 64 µg/mL; in the data set with Moraxella catarrhalis, 4 µg/mL (≈ 11.9 µM); in the data set with Serratia marcescens, over 64 µg/mL; against Pseudomonas aeruginosa, over 64 µg/mL.

Regarding `C[C@@H](O)[C@H]1C(=O)N2C(C(=O)O)=C(S[C@@H]3CN[C@H](C(=O)N(C)C)C3)[C@H](C)[C@H]12` [MEROPENEM], the MIC in the data set on Staphylococcus aureus [1] was 0.25 µg/mL (≈ 0.652 µM); with Staphylococcus aureus [3], over 4 µg/mL; against Staphylococcus aureus [4], 0.25 µg/mL (≈ 0.652 µM); against Streptococcus pneumoniae [5], 0.015 µg/mL (≈ 0.0391 µM); against Streptococcus pneumoniae [6], 1 µg/mL (≈ 2.61 µM); against Streptococcus pneumoniae [7] it was 0.015 µg/mL (≈ 0.0391 µM). For the same compound, the MIC in the data set with Haemophilus influenzae is 0.06 µg/mL (≈ 0.156 µM); in data set [8], 0.03 µg/mL (≈ 0.0782 µM); against Escherichia coli [9], 0.03 µg/mL (≈ 0.0782 µM); against Escherichia coli [10], 0.03 µg/mL (≈ 0.0782 µM); in the data set with Klebsiella pneumoniae [11] it was 0.06 µg/mL (≈ 0.156 µM); against Klebsiella pneumoniae [17], over 64 µg/mL. The MIC with Moraxella catarrhalis is at most 0.004 µg/mL; in the data set on Serratia marcescens it was 0.06 µg/mL (≈ 0.156 µM); against Pseudomonas aeruginosa, 4 µg/mL (≈ 10.4 µM).
